Results on eight compounds are retold here after ChEMBL document CHEMBL5465560, “Selectivity Literature for EUbOPEN Chemogenomic Library” (2024).

Experiment [1] deals with MAP kinase-interacting serine/threonine-protein kinase 2 (Homo sapiens, UniProt Q9HBH9). The experiment is described as follows: Selectivity interaction (Ambit KINOMEscan and KiNATiv profiling in Jurkat cells) EUB0000090b MKNK2. The experiment is classed as cell-based. The following applies: at 1 µM.
Experiment [2] concerns the target Tyrosine-protein kinase SYK (Homo sapiens, UniProt P43405). The following applies: at 10 µM.
Experiment [3] concerns the target T1, Cyclin-dependent kinase-like 2 (Homo sapiens) (UniProt Q92772).
T1 sequence (whole entry): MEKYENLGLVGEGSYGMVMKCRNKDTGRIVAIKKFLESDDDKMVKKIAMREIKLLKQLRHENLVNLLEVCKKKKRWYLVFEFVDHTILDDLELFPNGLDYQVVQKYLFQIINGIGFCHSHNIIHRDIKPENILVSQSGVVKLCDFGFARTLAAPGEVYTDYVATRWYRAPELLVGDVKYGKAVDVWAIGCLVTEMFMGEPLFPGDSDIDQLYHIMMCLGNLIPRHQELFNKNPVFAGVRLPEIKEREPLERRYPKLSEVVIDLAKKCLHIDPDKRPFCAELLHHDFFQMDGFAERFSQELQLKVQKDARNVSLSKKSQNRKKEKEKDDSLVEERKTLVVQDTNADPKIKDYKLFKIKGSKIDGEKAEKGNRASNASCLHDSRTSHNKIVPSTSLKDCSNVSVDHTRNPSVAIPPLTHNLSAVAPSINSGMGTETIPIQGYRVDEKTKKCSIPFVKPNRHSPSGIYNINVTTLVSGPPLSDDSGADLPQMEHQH
The following applies: at 10 µM.

The target in experiment [4] is T2, Serine/threonine-protein kinase Nek2 (Homo sapiens) (UniProt P51955).
T2 sequence (whole entry): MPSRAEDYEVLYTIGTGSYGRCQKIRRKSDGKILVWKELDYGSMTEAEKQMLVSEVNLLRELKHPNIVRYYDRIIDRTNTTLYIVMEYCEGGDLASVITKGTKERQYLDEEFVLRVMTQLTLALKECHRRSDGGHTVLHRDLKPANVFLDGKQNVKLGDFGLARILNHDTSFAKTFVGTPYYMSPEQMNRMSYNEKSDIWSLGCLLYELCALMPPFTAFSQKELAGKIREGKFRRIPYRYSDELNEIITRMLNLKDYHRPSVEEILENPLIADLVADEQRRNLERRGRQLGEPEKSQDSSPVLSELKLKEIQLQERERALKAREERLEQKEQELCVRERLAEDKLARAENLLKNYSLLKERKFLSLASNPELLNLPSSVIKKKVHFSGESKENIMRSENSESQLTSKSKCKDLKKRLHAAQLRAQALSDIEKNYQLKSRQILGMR
Description: Selectivity interaction (KinomeScan (DiscoverX)) EUB0000655a NEK2. The following applies: at 10 µM.

In experiment [5] the target is Tyrosine-protein kinase HCK (Homo sapiens) (UniProt P08631). The experiment is described as follows: Selectivity interaction (KinomeScan (DiscoverX)) EUB0001079a HCK. As to conditions: at 1 µM.
The target of experiment [6] is T3, Serine/threonine-protein kinase haspin (Homo sapiens) (UniProt Q8TF76).
T3 sequence (whole entry): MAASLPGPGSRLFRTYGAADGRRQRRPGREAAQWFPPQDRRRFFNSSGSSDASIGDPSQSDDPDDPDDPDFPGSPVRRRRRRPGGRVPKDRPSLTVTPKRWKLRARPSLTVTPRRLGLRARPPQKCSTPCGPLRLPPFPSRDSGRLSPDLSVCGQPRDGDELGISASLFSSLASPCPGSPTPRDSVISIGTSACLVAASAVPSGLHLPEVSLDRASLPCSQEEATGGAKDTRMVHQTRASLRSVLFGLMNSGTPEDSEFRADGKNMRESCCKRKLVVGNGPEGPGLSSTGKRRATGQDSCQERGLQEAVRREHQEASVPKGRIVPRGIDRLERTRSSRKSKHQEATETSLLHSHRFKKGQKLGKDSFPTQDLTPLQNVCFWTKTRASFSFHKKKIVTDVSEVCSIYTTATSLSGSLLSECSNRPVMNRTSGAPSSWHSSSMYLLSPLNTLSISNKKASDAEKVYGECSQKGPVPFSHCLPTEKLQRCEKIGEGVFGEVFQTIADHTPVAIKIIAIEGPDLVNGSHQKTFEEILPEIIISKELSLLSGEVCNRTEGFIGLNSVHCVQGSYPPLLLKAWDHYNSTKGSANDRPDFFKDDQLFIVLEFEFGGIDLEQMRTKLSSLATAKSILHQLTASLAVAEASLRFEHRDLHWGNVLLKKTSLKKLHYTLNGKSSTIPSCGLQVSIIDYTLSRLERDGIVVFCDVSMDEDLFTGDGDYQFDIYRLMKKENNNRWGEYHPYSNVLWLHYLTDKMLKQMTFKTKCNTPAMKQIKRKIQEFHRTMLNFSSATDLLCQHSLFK
Description: Selectivity interaction (KinomeScan (DiscoverX)) EUB0001619a GSG2. The following applies: at 1 µM.

Experiment [7] has as its target Serine/threonine-protein kinase PRP4 homolog (Homo sapiens) (UniProt Q13523). Description: Selectivity interaction (ActivX KiNativ screen (kinase selectivity in THP-1 cell lysates)) EUB0000639a PRPF4. The experiment is classed as subcellular. The following applies: lysate, at 0.01 µM.
In experiment [8] the target is Tyrosine-protein kinase Fes/Fps (Homo sapiens) (UniProt P07332). Description: Selectivity interaction (ActivX KiNativ screen (kinase selectivity in THP-1 cell lysates)) EUB0000639a FES. Type of experiment: subcellular. As to conditions: lysate.
For experiment [9], the target named is Serine/threonine-protein kinase 16 (Homo sapiens, UniProt O75716). Description: Selectivity interaction (KinomeScan (DiscoverX)) EUB0000092b STK16. The following applies: at 10 µM.
Experiment [10] deals with T4, Serine/threonine-protein kinase 3 (Homo sapiens) (UniProt Q13188).
T4 sequence (whole entry): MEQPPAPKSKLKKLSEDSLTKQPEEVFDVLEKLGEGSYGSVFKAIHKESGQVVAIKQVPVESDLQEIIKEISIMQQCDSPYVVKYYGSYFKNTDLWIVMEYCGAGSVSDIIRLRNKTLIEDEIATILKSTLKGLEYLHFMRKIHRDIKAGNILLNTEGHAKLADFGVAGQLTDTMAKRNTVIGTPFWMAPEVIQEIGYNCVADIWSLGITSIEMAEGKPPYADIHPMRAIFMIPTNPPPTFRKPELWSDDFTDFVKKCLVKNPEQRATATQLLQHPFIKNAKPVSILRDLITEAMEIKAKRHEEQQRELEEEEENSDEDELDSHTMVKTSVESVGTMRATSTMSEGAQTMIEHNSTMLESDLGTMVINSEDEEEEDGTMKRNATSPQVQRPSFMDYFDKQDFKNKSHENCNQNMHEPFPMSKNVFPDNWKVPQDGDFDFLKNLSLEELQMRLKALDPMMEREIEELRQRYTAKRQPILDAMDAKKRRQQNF
Description: Selectivity interaction (KinomeScan (DiscoverX)) EUB0000618a STK3. As to conditions: at 10 µM.

Tyrosine-protein kinase Fes/Fps (Homo sapiens), sequence (P07332 whole entry): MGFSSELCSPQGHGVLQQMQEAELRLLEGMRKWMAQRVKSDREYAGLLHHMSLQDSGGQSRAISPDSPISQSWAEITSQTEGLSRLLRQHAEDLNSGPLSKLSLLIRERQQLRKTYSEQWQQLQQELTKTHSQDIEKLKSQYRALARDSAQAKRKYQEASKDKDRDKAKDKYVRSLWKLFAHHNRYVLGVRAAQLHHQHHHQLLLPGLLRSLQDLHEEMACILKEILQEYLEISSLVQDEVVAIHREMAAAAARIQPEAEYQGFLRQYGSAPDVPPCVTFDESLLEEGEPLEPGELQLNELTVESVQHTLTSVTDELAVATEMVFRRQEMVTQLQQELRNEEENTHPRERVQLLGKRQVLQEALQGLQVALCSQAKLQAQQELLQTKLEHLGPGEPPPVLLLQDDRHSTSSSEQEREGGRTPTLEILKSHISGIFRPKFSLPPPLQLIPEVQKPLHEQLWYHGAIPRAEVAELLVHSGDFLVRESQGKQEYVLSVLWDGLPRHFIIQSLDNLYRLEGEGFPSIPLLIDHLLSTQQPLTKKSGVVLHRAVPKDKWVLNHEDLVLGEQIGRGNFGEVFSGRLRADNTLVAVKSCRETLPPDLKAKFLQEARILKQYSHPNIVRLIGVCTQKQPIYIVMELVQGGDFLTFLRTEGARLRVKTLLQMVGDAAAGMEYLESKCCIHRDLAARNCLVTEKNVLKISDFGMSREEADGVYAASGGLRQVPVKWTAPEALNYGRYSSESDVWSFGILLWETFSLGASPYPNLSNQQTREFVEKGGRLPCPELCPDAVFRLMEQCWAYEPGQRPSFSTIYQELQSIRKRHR
Serine/threonine-protein kinase PRP4 homolog (Homo sapiens), sequence (Q13523 whole entry): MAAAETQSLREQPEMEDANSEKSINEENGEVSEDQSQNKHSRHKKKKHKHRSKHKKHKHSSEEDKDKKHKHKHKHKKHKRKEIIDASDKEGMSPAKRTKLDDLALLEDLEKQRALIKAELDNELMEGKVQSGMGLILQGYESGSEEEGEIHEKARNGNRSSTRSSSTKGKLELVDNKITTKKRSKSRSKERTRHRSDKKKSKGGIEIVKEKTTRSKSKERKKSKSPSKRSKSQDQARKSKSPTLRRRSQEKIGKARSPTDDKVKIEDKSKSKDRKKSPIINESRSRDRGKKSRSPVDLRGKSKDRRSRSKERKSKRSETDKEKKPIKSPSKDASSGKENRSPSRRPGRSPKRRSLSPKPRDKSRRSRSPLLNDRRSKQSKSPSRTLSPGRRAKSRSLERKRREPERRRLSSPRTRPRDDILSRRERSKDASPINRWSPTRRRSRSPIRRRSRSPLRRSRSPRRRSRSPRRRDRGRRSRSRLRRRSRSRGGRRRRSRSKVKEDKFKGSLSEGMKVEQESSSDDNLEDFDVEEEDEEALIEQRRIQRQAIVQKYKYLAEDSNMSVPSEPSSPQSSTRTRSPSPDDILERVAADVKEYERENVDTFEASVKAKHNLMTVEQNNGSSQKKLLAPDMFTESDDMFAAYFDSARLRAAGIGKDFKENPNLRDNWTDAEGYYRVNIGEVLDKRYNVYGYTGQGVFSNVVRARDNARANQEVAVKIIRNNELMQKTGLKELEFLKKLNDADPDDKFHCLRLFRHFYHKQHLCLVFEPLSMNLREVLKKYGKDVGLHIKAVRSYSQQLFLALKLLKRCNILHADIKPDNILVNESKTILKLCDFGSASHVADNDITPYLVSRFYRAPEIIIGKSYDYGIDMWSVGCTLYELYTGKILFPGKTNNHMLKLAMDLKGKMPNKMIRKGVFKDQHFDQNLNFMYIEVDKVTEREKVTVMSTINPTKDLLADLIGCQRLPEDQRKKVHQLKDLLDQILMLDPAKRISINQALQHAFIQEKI
Serine/threonine-protein kinase 16, sequence (O75716 whole entry): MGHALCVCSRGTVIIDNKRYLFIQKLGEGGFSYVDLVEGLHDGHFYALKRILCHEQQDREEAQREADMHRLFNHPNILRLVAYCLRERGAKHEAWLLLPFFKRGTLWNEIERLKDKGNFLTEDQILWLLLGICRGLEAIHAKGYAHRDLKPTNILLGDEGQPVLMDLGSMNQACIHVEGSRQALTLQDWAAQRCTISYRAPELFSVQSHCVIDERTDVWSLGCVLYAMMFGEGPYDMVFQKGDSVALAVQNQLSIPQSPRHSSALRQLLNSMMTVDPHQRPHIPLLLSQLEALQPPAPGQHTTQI
MAP kinase-interacting serine/threonine-protein kinase 2, sequence (Q9HBH9 whole entry, looked up): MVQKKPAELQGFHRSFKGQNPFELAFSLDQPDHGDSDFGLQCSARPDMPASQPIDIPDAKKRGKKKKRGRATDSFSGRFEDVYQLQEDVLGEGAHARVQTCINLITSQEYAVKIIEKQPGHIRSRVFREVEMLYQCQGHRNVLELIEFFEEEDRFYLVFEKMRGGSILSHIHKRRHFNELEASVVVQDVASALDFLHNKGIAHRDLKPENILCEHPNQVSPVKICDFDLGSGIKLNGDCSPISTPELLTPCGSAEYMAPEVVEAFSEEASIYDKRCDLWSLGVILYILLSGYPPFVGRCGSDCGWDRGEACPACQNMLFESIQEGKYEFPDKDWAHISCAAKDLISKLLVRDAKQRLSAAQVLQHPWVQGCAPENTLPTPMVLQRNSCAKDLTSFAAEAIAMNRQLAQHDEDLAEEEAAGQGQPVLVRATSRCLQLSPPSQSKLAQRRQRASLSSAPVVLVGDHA
Tyrosine-protein kinase HCK (Homo sapiens), sequence (P08631 2-526 limits assumed): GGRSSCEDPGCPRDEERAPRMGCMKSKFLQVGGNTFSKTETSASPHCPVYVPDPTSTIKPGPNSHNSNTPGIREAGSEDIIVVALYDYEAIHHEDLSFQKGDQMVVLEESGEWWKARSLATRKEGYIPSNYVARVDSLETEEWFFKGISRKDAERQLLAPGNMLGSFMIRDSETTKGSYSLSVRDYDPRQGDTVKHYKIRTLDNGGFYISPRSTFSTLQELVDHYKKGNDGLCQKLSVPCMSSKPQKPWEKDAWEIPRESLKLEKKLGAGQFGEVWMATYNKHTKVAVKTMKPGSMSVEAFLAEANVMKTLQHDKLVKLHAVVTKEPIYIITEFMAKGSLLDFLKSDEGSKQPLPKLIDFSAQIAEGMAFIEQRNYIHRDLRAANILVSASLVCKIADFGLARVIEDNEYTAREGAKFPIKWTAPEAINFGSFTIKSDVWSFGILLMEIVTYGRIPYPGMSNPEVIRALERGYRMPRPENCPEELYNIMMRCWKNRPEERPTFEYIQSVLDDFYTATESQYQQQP

As for `CN(C)C/C=C/C(=O)Nc1ccc(C(=O)N2CCCC(Nc3ncc(Cl)c(-c4c[nH]c5ccccc45)n3)C2)cc1` (centres undefined), the % of control in [1] worked out at 88%.
With `Cc1cc([C@@H](C)Nc2ccccc2C(=O)O)c2nc(N3CCOCC3)cc(=O)n2c1` [AZD-6482], the % of control in [2] is 100%; in experiment [3], 91%.
In turn, `CN(C)CCOc1ccc(-c2nc(-c3ccncc3)c(-c3ccc4c(c3)CC/C4=N\O)[nH]2)cc1` had a % of control in experiment [4] of 100%.
Compound `Nc1cnc(N2CCc3cc(S(=O)(=O)Nc4c(F)cc(Cl)cc4F)cc(N4CCCC4=O)c32)nc1` [TP-020n] had a % of control in [5] of 100%.
`N#Cc1cccc(-c2c[nH]c3ncnc(N4CCOCC4)c23)c1` had a % of control in experiment [6] of 46%.
As for `CC[C@@H]1[C@H](F)C(=O)N[C@@H]1COc1nccc2cc(C(N)=O)c(OC)cc12` [ZIMLOVISERTIB], the % of inhibition in [7] was 15.8%; in [8] (at 0.01 µM), 0.3%; in [8] (at 0.04 µM) it was 2.2%; in experiment [8] (at 0.2 µM), 5.7%; in experiment [8] (at 1 µM) it was 0.6%; in experiment [8] (at 5 µM), -23.7%.
Compound `CCC(=O)N1CCN(c2ccc(-n3c(=O)ccc4cnc5ccc(-c6cnc7ccccc7c6)cc5c43)cc2C(F)(F)F)CC1` registered a % of control in experiment [9] of 18%.
Take `O[C@H]1CC[C@H](Nc2ncc3nc(Nc4c(F)cc(F)cc4F)n([C@H]4CCOC4)c3n2)CC1`: in [10], the % of control was 73%.
